SMILES strings stand for the structures.

Chain of Cytochrome P450 3A4 (P08684 whole entry): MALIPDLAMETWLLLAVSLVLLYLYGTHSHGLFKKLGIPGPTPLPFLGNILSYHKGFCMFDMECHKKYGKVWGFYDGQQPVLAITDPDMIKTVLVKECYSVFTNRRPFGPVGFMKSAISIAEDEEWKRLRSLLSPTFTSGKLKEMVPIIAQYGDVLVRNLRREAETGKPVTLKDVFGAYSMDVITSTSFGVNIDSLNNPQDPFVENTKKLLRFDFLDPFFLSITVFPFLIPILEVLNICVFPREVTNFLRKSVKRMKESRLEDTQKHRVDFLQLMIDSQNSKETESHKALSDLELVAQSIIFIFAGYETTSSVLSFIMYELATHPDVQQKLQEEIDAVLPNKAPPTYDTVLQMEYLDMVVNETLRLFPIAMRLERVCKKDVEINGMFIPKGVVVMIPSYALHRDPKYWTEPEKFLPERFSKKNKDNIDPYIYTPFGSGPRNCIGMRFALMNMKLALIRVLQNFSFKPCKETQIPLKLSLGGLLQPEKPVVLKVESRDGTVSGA
Chain of Vasopressin V1a receptor (P37288 whole entry): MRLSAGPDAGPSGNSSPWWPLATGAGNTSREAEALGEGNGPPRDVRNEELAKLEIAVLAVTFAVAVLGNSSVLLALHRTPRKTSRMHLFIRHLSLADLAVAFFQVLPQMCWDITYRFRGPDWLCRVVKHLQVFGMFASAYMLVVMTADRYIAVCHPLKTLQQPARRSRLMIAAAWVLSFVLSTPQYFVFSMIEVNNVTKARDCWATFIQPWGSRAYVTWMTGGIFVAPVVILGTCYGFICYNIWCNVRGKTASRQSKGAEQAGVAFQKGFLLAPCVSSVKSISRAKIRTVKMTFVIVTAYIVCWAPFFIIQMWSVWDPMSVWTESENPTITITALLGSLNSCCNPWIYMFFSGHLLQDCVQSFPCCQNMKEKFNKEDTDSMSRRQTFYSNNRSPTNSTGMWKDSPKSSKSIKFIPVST

In one series the target is T1, Thromboxane-A synthase (Homo sapiens, UniProt P24557).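 Note: enzyme inhibition assay with PGH2 supplied as substrate; in other assays of this panel Not Active means under 50% inhibition at 10 µM.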
T1 sequence (P24557 whole entry): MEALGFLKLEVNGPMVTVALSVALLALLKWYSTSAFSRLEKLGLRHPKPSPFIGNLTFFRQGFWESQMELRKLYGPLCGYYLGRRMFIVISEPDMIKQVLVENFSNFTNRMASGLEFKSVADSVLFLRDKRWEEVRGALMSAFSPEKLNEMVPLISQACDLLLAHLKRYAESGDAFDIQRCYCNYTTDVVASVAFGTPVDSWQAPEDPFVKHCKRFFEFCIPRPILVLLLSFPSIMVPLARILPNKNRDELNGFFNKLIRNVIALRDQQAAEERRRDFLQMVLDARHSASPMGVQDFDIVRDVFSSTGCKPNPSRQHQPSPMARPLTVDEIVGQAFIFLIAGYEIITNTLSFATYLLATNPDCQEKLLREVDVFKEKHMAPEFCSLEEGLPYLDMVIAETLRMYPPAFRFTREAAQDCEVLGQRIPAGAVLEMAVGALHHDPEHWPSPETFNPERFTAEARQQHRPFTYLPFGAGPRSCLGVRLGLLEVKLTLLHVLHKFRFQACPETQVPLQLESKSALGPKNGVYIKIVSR
Nature of the series: biochemical. Type of series: tissue-based, Platelet. The settings on record: platelet.
Turning to `c1ccc2c(c1)cc1ccc3cccc4ccc2c1c34`, the IC50 entry is recorded as “Not Active”.
For the compound `CC(=O)O[C@]1(C(C)=O)CC[C@H]2[C@@H]3C=C(Cl)C4=CC(=O)CC[C@]4(C)[C@H]3CC[C@@]21C` [CHLORMADINONE ACETATE], the IC50 result is “Not Active”.
The same measure, in the same setting: then `CC1(C)S[C@@H]2[C@H](NC(=O)[C@H](N)c3ccc(O)cc3)C(=O)N2[C@H]1C(=O)O` [AMOXICILLIN], with “Not Active”; and `NS(=O)(=O)c1cc2c(cc1Cl)NCNS2(=O)=O` [HYDROCHLOROTHIAZIDE], with “Not Active”.

Still in this series, the particulars now being: read-out: IC50.
For the compound `O=c1cc(-c2ccccc2)oc2c1ccc1ccccc12` [ALPHA-NAPHTHOFLAVONE], the IC50 worked out at 6.76 µM.

A further series concerns the target Vasopressin V1a receptor (Homo sapiens, UniProt P37288). Note: in other assays of this panel Not Active means under 50% inhibition at 10 µM.
Test: not given
Particulars: hek293. Format: cell membranes, Membrane.
Regarding `c1ccc2c(c1)cc1ccc3cccc4ccc2c1c34`, the IC50 result was “Not Active”.
With `CC(=O)O[C@]1(C(C)=O)CC[C@H]2[C@@H]3C=C(Cl)C4=CC(=O)CC[C@]4(C)[C@H]3CC[C@@]21C` [CHLORMADINONE ACETATE], the IC50 entry was “Not Active”.
Same read-out and setting: next, `CC1(C)S[C@@H]2[C@H](NC(=O)[C@H](N)c3ccc(O)cc3)C(=O)N2[C@H]1C(=O)O` [AMOXICILLIN]: “Not Active”; `NS(=O)(=O)c1cc2c(cc1Cl)NCNS2(=O)=O` [HYDROCHLOROTHIAZIDE]: “Not Active”; `O=c1cc(-c2ccccc2)oc2c1ccc1ccccc12` [ALPHA-NAPHTHOFLAVONE]: “Not Active”.

A further series concerns the target Carbonic anhydrase 2 (Homo sapiens, UniProt P00918). The experiment in a line: DRUGMATRIX: Carbonic Anhydrase II enzyme inhibition (substrate: 4-Nitrophenyl acetate (4-NPA)). Type of series: tissue-based, Erythrocyte. The settings on record: erythrocyte; Not Active = under 50% inhibition at 10 µM.
As to `c1ccc2c(c1)cc1ccc3cccc4ccc2c1c34`, the IC50 result is “Not Active”.
The same measure, in the same setting: then `CC(=O)O[C@]1(C(C)=O)CC[C@H]2[C@@H]3C=C(Cl)C4=CC(=O)CC[C@]4(C)[C@H]3CC[C@@]21C` [CHLORMADINONE ACETATE], with “Not Active”; and `CC1(C)S[C@@H]2[C@H](NC(=O)[C@H](N)c3ccc(O)cc3)C(=O)N2[C@H]1C(=O)O` [AMOXICILLIN], with “Not Active”.
Still for that read-out and setting: then `NS(=O)(=O)c1cc2c(cc1Cl)NCNS2(=O)=O` [HYDROCHLOROTHIAZIDE], with “Not Active”.
Regarding `O=c1cc(-c2ccccc2)oc2c1ccc1ccccc12` [ALPHA-NAPHTHOFLAVONE], the IC50 entry is reported as “Not Active”.

The next series deals with T2, Neuropeptide Y receptor type 2 (Homo sapiens, UniProt P49146).
T2 sequence (P49146 whole entry): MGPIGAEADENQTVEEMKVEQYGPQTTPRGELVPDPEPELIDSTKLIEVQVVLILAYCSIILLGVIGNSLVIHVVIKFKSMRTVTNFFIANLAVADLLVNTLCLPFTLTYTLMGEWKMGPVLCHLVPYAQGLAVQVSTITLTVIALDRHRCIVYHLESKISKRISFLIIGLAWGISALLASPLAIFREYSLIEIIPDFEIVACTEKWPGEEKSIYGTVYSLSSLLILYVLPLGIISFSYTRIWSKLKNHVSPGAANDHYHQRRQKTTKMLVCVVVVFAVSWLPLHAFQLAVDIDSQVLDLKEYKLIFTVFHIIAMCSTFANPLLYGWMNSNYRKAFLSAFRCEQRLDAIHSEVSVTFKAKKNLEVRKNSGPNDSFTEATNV
Test: not given
Type of series: cell membranes, Membrane. The settings on record: kan-ts.
Take `c1ccc2c(c1)cc1ccc3cccc4ccc2c1c34`: the IC50 entry is “Not Active”.
For `CC(=O)O[C@]1(C(C)=O)CC[C@H]2[C@@H]3C=C(Cl)C4=CC(=O)CC[C@]4(C)[C@H]3CC[C@@]21C` [CHLORMADINONE ACETATE], the IC50 result is “Not Active”.
As to `CC1(C)S[C@@H]2[C@H](NC(=O)[C@H](N)c3ccc(O)cc3)C(=O)N2[C@H]1C(=O)O` [AMOXICILLIN], the IC50 entry is on record as “Not Active”.
In the case of `NS(=O)(=O)c1cc2c(cc1Cl)NCNS2(=O)=O` [HYDROCHLOROTHIAZIDE], the IC50 result is on record as “Not Active”.
Same read-out and setting: then `O=c1cc(-c2ccccc2)oc2c1ccc1ccccc12` [ALPHA-NAPHTHOFLAVONE], with “Not Active”.

For a further series, the target named is Acetylcholinesterase (Homo sapiens, UniProt P22303). The experiment in a line: DRUGMATRIX: Acetylcholinesterase enzyme inhibition (substrate: acetylthiocholine). Format: cell-based, HEK293. Particulars: Not Active = under 50% inhibition at 10 µM; read-out: IC50.
Chain of Acetylcholinesterase (P22303 whole entry): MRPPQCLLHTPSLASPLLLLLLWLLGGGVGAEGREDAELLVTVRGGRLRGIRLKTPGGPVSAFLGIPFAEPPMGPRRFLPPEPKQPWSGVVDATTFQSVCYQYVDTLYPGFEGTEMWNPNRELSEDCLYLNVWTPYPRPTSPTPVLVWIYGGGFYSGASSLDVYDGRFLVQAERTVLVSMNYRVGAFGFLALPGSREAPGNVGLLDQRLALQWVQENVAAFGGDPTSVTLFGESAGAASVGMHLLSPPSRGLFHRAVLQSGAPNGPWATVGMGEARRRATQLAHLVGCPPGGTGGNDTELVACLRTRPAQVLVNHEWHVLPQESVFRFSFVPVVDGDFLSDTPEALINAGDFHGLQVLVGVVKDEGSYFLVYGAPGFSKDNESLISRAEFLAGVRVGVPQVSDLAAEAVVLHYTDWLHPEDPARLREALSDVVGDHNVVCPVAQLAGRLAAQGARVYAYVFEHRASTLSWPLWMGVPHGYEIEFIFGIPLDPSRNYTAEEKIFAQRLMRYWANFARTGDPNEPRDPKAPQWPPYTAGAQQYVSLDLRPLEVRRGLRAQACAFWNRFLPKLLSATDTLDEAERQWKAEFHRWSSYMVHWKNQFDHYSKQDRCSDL
`c1ccc2c(c1)cc1ccc3cccc4ccc2c1c34`: the IC50 amounted to 28 µM.

The same series, now with this note: hek293; Not Active = under 50% inhibition at 10 µM.
Take `CC(=O)O[C@]1(C(C)=O)CC[C@H]2[C@@H]3C=C(Cl)C4=CC(=O)CC[C@]4(C)[C@H]3CC[C@@]21C` [CHLORMADINONE ACETATE]: the IC50 result was “Not Active”.
Same read-out and setting: then `CC1(C)S[C@@H]2[C@H](NC(=O)[C@H](N)c3ccc(O)cc3)C(=O)N2[C@H]1C(=O)O` [AMOXICILLIN], with “Not Active”; and `NS(=O)(=O)c1cc2c(cc1Cl)NCNS2(=O)=O` [HYDROCHLOROTHIAZIDE], with “Not Active”; and `O=c1cc(-c2ccccc2)oc2c1ccc1ccccc12` [ALPHA-NAPHTHOFLAVONE], with “Not Active”.

In a further series the target is T3, Cytochrome P450 1A2 (Homo sapiens, UniProt P05177). Note: in other assays of this panel Not Active means under 50% inhibition at 10 µM.
T3 sequence (P05177 whole entry): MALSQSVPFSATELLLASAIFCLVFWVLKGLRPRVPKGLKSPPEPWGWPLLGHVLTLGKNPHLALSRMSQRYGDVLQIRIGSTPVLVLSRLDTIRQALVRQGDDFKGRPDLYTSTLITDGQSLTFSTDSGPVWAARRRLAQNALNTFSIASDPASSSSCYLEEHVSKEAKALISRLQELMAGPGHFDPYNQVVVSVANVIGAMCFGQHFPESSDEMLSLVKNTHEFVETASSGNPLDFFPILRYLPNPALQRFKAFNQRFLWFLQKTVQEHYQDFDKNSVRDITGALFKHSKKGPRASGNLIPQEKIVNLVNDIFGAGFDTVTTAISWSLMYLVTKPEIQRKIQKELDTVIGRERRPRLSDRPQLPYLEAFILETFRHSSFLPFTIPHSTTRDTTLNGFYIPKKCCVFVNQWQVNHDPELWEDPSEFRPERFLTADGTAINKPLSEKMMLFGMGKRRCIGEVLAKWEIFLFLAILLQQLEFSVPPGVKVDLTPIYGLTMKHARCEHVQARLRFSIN
Test: not given
Particulars: bti-tn-5b1-4.
Regarding `CC(=O)O[C@]1(C(C)=O)CC[C@H]2[C@@H]3C=C(Cl)C4=CC(=O)CC[C@]4(C)[C@H]3CC[C@@]21C` [CHLORMADINONE ACETATE], the half-maximal inhibitory concentration (IC50) entry was “Not Active” and the Ki result was “Not Active”.

In the next series the target is T4, Cytochrome P450 2A6 (Homo sapiens, UniProt P11509). Note: in other assays of this panel Not Active means under 50% inhibition at 10 µM.
T4 sequence (P11509 whole entry): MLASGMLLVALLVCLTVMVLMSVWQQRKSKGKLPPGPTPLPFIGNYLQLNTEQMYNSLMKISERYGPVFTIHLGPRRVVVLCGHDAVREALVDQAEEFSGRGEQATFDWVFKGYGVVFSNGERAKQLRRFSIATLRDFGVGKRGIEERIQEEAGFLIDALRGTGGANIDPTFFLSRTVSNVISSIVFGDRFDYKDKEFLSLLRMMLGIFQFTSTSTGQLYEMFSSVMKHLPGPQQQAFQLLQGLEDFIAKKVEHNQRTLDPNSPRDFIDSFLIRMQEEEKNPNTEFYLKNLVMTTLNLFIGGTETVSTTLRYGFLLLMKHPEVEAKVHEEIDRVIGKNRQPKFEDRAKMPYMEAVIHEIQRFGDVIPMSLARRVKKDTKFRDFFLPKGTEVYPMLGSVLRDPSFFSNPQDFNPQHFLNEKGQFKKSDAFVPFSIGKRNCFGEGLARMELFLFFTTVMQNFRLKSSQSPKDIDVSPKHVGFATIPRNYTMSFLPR
Test: not given
Particulars: bti-tn-5b1-4.
Regarding `c1ccc2c(c1)cc1ccc3cccc4ccc2c1c34`, the IC50 result is reported as “Not Active” and the Ki entry is listed as “Not Active”.
On to `CC(=O)O[C@]1(C(C)=O)CC[C@H]2[C@@H]3C=C(Cl)C4=CC(=O)CC[C@]4(C)[C@H]3CC[C@@]21C` [CHLORMADINONE ACETATE], for which the half-maximal inhibitory concentration (IC50) result is recorded as “Not Active” and the Ki result is on record as “Not Active”.
Turning to `CC1(C)S[C@@H]2[C@H](NC(=O)[C@H](N)c3ccc(O)cc3)C(=O)N2[C@H]1C(=O)O` [AMOXICILLIN], the IC50 result is reported as “Not Active” and the Ki result is on record as “Not Active”.
On to `NS(=O)(=O)c1cc2c(cc1Cl)NCNS2(=O)=O` [HYDROCHLOROTHIAZIDE], for which the IC50 result is listed as “Not Active” and the Ki result is “Not Active”.
In the case of `O=c1cc(-c2ccccc2)oc2c1ccc1ccccc12` [ALPHA-NAPHTHOFLAVONE], the IC50 entry is listed as “Not Active” and the Ki entry is reported as “Not Active”.

The target of the next series is Cytochrome P450 2C19 (Homo sapiens, UniProt P33261). Note: in other assays of this panel Not Active means under 50% inhibition at 10 µM.
Chain of Cytochrome P450 2C19 (P33261 whole entry): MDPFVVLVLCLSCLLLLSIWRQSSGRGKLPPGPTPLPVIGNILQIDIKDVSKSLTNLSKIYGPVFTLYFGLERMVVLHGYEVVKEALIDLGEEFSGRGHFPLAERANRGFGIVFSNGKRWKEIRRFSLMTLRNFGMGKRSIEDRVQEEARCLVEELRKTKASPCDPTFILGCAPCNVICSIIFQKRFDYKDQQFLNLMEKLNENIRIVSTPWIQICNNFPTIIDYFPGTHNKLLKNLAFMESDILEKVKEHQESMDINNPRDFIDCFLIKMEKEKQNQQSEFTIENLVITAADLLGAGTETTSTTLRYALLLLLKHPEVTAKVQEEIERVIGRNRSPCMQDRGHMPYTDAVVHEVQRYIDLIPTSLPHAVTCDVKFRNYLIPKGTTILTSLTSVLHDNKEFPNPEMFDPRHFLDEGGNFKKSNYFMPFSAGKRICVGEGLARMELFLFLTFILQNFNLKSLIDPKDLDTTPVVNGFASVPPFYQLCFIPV
Test: not given
Particulars: bti-tn-5b1-4.
Take `c1ccc2c(c1)cc1ccc3cccc4ccc2c1c34`: the IC50 result is given as “Not Active” and the Ki result was “Not Active”.
As to `CC1(C)S[C@@H]2[C@H](NC(=O)[C@H](N)c3ccc(O)cc3)C(=O)N2[C@H]1C(=O)O` [AMOXICILLIN], the IC50 result is on record as “Not Active” and the Ki entry is “Not Active”.
Regarding `NS(=O)(=O)c1cc2c(cc1Cl)NCNS2(=O)=O` [HYDROCHLOROTHIAZIDE], the IC50 result was “Not Active” and the Ki entry was “Not Active”.
Take `O=c1cc(-c2ccccc2)oc2c1ccc1ccccc12` [ALPHA-NAPHTHOFLAVONE]: the IC50 result is “Not Active” and the Ki result was “Not Active”.

A further series addresses Cytochrome P450 3A4 (Homo sapiens, UniProt P08684).
Test: not given
The settings on record: bti-tn-5b1-4.
`c1ccc2c(c1)cc1ccc3cccc4ccc2c1c34`: the IC50 entry was “Not Active” and the Ki result was “Not Active”.
Take `CC(=O)O[C@]1(C(C)=O)CC[C@H]2[C@@H]3C=C(Cl)C4=CC(=O)CC[C@]4(C)[C@H]3CC[C@@]21C` [CHLORMADINONE ACETATE]: the IC50 result is on record as “Not Active” and the Ki result is on record as “Not Active”.
As to `CC1(C)S[C@@H]2[C@H](NC(=O)[C@H](N)c3ccc(O)cc3)C(=O)N2[C@H]1C(=O)O` [AMOXICILLIN], the IC50 entry is “Not Active” and the Ki result is given as “Not Active”.
`NS(=O)(=O)c1cc2c(cc1Cl)NCNS2(=O)=O` [HYDROCHLOROTHIAZIDE]: the IC50 result is given as “Not Active” and the Ki result is reported as “Not Active”.
`O=c1cc(-c2ccccc2)oc2c1ccc1ccccc12` [ALPHA-NAPHTHOFLAVONE]: the IC50 result is “Not Active” and the Ki entry is “Not Active”.

For a further series, the target named is Voltage-gated inwardly rectifying potassium channel KCNH2 (Homo sapiens, UniProt Q12809). Note: in other assays of this panel Not Active means under 50% inhibition at 10 µM.
Chain of Voltage-gated inwardly rectifying potassium channel KCNH2 (Q12809 whole entry): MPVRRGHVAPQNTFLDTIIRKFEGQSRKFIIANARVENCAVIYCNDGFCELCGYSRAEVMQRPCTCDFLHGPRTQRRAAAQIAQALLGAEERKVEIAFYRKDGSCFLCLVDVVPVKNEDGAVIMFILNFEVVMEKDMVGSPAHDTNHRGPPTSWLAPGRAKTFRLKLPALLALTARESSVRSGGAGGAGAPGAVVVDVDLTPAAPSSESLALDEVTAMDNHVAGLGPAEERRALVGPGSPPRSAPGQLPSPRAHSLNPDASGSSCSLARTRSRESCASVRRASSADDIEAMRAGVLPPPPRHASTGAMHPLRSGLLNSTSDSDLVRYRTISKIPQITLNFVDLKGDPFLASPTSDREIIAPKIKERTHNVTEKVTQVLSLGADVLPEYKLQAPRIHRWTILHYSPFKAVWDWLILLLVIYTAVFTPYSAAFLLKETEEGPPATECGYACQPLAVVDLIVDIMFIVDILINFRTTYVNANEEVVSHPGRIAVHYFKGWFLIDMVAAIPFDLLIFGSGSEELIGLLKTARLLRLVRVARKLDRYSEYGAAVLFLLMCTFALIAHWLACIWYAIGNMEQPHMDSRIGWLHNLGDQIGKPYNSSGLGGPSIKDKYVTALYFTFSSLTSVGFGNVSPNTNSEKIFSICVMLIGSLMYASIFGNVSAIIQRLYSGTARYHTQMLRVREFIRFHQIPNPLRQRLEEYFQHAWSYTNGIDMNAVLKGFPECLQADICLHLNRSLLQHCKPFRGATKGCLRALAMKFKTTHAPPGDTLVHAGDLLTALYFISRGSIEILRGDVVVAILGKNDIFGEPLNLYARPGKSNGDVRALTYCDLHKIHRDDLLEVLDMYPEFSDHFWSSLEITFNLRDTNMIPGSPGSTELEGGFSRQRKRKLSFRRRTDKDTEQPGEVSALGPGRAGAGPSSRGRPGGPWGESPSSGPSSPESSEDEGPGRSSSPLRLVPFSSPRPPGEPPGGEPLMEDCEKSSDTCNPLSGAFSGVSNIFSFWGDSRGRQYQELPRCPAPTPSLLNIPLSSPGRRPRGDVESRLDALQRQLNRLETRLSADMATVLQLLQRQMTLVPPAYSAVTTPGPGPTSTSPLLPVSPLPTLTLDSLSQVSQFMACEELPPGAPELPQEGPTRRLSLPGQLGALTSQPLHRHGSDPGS
Test: not given
The settings on record: hek293.
As for `c1ccc2c(c1)cc1ccc3cccc4ccc2c1c34`, the IC50 result was “Not Active” and the Ki result is “Not Active”.
Turning to `CC(=O)O[C@]1(C(C)=O)CC[C@H]2[C@@H]3C=C(Cl)C4=CC(=O)CC[C@]4(C)[C@H]3CC[C@@]21C` [CHLORMADINONE ACETATE], the IC50 result is “Not Active” and the Ki result is on record as “Not Active”.
As to `NS(=O)(=O)c1cc2c(cc1Cl)NCNS2(=O)=O` [HYDROCHLOROTHIAZIDE], the IC50 entry is reported as “Not Active” and the Ki result is reported as “Not Active”.
In the case of `O=c1cc(-c2ccccc2)oc2c1ccc1ccccc12` [ALPHA-NAPHTHOFLAVONE], the half-inhibitory concentration (IC50) result is listed as “Not Active” and the Ki entry is recorded as “Not Active”.

(Values after ChEMBL document CHEMBL1909046, “DrugMatrix in vitro pharmacology data”.)
